Measured values: patent US5472951A, “Stabilizer for phospholipid vesicles” (Chiba Flour Milling Co., Ltd., priority 1992, dated 1995)
Each block holds one compound with its values, some of them ahead of it.

Columns and labels:
Format in all cases: physicochemical
[1] = viscosity of vesicle dispersion on addition of calcium ion (rotating viscometer); conditions: 5 mM calcium chloride
Procedure: The stability of the vesicles was evaluated as below. The precipitate of the vesicles prepared by centrifuge was dispersed again into saline by a vortex mixer. To this sample, calcium chloride (as calcium ion) was added to be 5 mM, and the viscosity of the dispersion was measured with a rotating viscometer (Vismetron VS-AK). The viscosity of 5 cp was not changed by addition of the calcium ion.
To this dispersion, calcium chloride (as calcium ion) was added to be 5 mM, and the viscosity of the dispersion was measured with a rotating viscometer (Vismetron VS-AK).
To this dispersion, calcium chloride (as calcium ion) was added to be 5 mM, and the viscosity of the dispersion was measured with a rotating viscometer (Vismetron VS-AK). The viscosity of 5 cp was not changed by addition of the calcium ion. On the contrary, the dispersion of the vesicles prepared from powdery lipid mixture not containing DACOA (DPPC:cholesterol:distearylphosphatidic acid=10:9:0.9 in molar ratio) aggregated immediately on addition of calcium ion because of negative charge on the surface of the vesicle, causing the viscosity rise up to 11 cp.
The stability of the dispersion of the DOLG-modified vesicles having adjusted particle diameters was evaluated by addition of 5 mM calcium chloride and observing the viscosity change. The viscosity was measured at 37° C. by a rotating viscometer. […] On the contrary, a dispersion of unmodified vesicles prepared from a powdery lipid mixture containing no DOLG (DPPC:cholesterol:stearic acid=7:7:2 in molar ratio) caused immediate aggregation of the vesicles on addition of calcium ion in the same manner as above because of the negative charge on the surface of the vesicle, and the viscosity increased up to 11 cp. Accordingly, the sufficient effect of the DOLG, a vesicle stabilizer of the present invention, was confirmed in inhibiting the aggregation of vesicles by calcium ion.

[2] = particle diameter of modified vesicles; conditions: for average diameter: ultrasonicator (Example 5 series)
[3] = introduction ratio into the vesicle (phenol-sulfuric acid method); conditions: 2 mol % modifier; for introduction ratio: 4 °C, 24 hours
Procedure: The ratio of introduction of the stabilizer into the vesicles is determined by treating the dispersion of the vesicles by gel filtration or ultracentrifuge to remove the superfluous stabilizer which has not been introduced into the vesicles, and quantitatively determining saccharide in respective fractions by a phenol-sulfuric acid method. The stabilizer of the present invention, when employed in an amount of from 2 to 10 mol %, is introduced into the vesicles in a ratio of 90% or more.
The stability of the vesicle dispersion which had been passed through the 0.05 μm filter was evaluated by measuring the change of absorbance (turbidity) at 500 nm with time on standing at room temperature by means of a UV-visible light spectrophotometer.
2.4 mg of DOMG prepared in the same manner as in Example 11 was dissolved in 1 ml of chloroform. This solution was mixed with a solution of 100 mg of DPPC in 5 ml of chloroform, thereby DOMG being 2 mol % of DPPC. The solution mixture was evaporated by means of an evaporator to form a thin film on the inside wall of an eggplant-shape flask. Then 10 ml of pure water was added thereto so as to obtain a concentration of 1.0% by weight of the vesicles. The mixture was stirred with glass beads by means of a vortex mixer, and subsequently treated by an extruder to prepare a dispersion of DOMG-modified DPPC vesicles having controlled diameters of particles. A portion of the resulting dispersion was diluted to a fivefold volume with pure water to prepare a dispersion having vesicle concentration of 0.2% by weight.
The two dispersions of the DOMG-modified vesicles having concentrations of 1.0% by weight and 0.2% by weight were left standing at 4° C. for 24 hours, and were ultracentrifuged (300000 G, 60 minutes). The free DOMG in the supernatant was determined by a phenol-sulfuric acid method, and therefrom the ratio of introduction DOMG to the vesicles was calculated.
As the results, the introduction ratios were 94.3%, and 77.0% respectively at the vesicle concentrations of 1.0% by weight and 0.2% by weight. The results are shown in Table 4 together with the results of Comparative Examples 6 and 7 described later in which an oligosaccharide derivative was employed.

[4] = turbidity increase, standing at 4 °C for 24 hours; conditions: for turbidity increase rate relative to unmodified DPPC vesicle dispersion (100%): Table 3 / Example 11 series
[5] = dispersion stability: turbidity increase at 500 nm, standing at 25 °C for 3 days
[6] = aggregation on addition of dextran: turbidity at 800 nm; conditions: 2.5 wt % dextran (MW 40000), DPPC:cholesterol:stearic acid:STEC 7:7:2:2
Procedure: The precipitation of the vesicles was dispersed again to be 5 wt %, and thereto dextran (molecular weight of 40000) was added as a colloid osmotic pressure controller. The stability of the dispersion was observed by determination of turbidity at 800 nm.
The stability of the MPDSPE-modified vesicle was evaluated by adding, to the above dispersion, dextran (molecular weight: 4000) which is a colloid osmotic pressure controller, and measuring the turbidity from the absorbance at 800 nm. […] This proves the aggregation inhibition effect of the MPDSPE of the vesicle stabilizer of the present invention.
The resulting dispersion was treated with a microfluidizer at 2500 psi at 4° C. for 15 minutes to obtain a dispersion of SDSPE-modified vesicles having average particle diameter of 350±95 nm. This dispersion was centrifuged (100000 G, 30 minutes) to obtain a precipitate of vesicles. The precipitate was dispersed again into a solution to be 5% by weight. Occurrence of aggregation of the vesicles was tested by adding dextran (molecular weight 40000) to the dispersion and measuring the turbidity change at 800 nm. […] Therefrom the modification was confirmed to be effective to inhibition of aggregation caused by dextran.
5.0 g of a powdery lipid mixture containing the above STEC (DPPC:cholesterol:stearic acid:STEC=7:7:2:2 in molar ratio) was dispersed in 100 ml of saline, and the dispersion was stirred at 4° C. for 24 hours. The resulting dispersion was treated with a microfluidizer at 2500 psi at 4° C. for 15 minutes. This dispersion was centrifuged (10000 G, 30 minutes) to obtain precipitate of STEC-modified vesicles. The precipitate was dispersed again in to saline to be 5 wt %. The stability of the vesicles was evaluated by adding 2.5 wt % solution of dextran (molecular weight 40000) to the above vesicle layer and measuring the turbidity change at 800 nm. The STEC-modified vesicles caused the turbidity increase of 58% of that of the unmodified vesicles (DPPC:cholesterol:stearic acid=7:7:2 in molar ratio), thereby the inhibition effect of STEC, a vesicle stabilizer of the present invention being confirmed.

[7] = mixed lipid vesicles, 0.2 μm filter by extruder
[8] = DPPC vesicle, 5 mol % modifier (Example 8 series)
[9] = Table 2 / Example 8 series, 5 mol % modifier
[10] = DPPC vesicle, about 5 mol % modifier
[11] = Table 1 / Example 5 series, about 5 mol % modifier

inhibition of aggregation of vesicles by calcium ion (in words) [1]: inhibited nearly completely
viscosity change on addition of calcium ion (in words) [1]: not changed at all
viscosity of the dispersion with calcium ion ([1]; Vismetron VS-AK): 5 cp
average particle diameter [2, 7]: 200 nm
Compound: CCCCCCCCCCCCCCCCCCNC(=O)[C@H](O)[C@@H](O)[C@H](O)[C@H](O)CO[C@H]1O[C@H](CO[C@H]2O[C@H](CO[C@H]3O[C@H](CO[C@H]4O[C@H](CO[C@H]5O[C@H](CO)[C@@H](O)[C@H](O)[C@H]5O)[C@@H](O)[C@H](O)[C@H]4O)[C@@H](O)[C@H](O)[C@H]3O)[C@@H](O)[C@H](O)[C@H]2O)[C@@H](O)[C@H](O)[C@H]1O [IHSA, Isomaltohexose stearylamide]

average particle diameter [2, 8]: 41±19 nm
average particle diameter ([2]; DPPC vesicle, 10 mol % modifier (Example 8 series)): 35±13 nm
average particle diameter (in words) ([2]; DPPC vesicle, 15 mol % (MCA also 25 mol %) modifier): Nearly the same diameters
average particle diameter ([2]; DPPC vesicle, 20 mol % modifier (Example 8 series)): 36±10 nm
turbidity increase rate relative to unmodified DPPC vesicle dispersion (100%) [5, 9]: 47.8%
turbidity increase rate relative to unmodified DPPC vesicle dispersion (100%) ([5]; Table 2 / Example 8 series, 10 mol % modifier): 32.5%
turbidity increase rate relative to unmodified DPPC vesicle dispersion (100%) ([5]; Table 2 / Example 8 series, 15 mol % modifier): 19.9%
turbidity increase rate relative to unmodified DPPC vesicle dispersion (100%) ([5]; Table 2 / Example 8 series, 20 mol % modifier): 15.6%
turbidity increase rate relative to unmodified DPPC vesicle dispersion (100%) ([5]; Table 2 / Example 8 series, 25 mol % modifier): 17.2%
Compound: CCCCCCCCCCCCCCCCNC(=O)[C@H](O)[C@@H](O)[C@H](O[C@H]1O[C@H](CO)[C@@H](O)[C@H](O)[C@H]1O)[C@H](O)CO [MCA, maltose cetyl amide]
increase of the turbidity depending on amount of modifier (order) ([5]; 5-25 mol %): 5 mol %>10 mol %>15 mol %>20 mol % ≤25 mol %

average particle diameter [2, 8]: 32±9 nm
average diameter [2, 10]: 32±7 nm
turbidity increase rate relative to unmodified DPPC vesicle dispersion (100%) [5, 11]: 6.3%
turbidity increase rate relative to unmodified DPPC vesicle dispersion (100%) [5, 9]: 12.7%
turbidity increase rate relative to unmodified DPPC vesicle dispersion (100%) ([5]; Table 2 / Example 8 series, 5 mol % modifier, listed as MCPA): 10.3%
turbidity rise / aggregation inhibiting effect (in words) ([5]; about 5 mol % modifier): little rise in turbidity
Compound: CCCCCCCCCCCCCCCCNC(=O)[C@H](O)[C@@H](O)[C@H](O[C@H]1O[C@H](CO)[C@@H](O[C@H]2O[C@H](CO)[C@@H](O[C@H]3O[C@H](CO)[C@@H](O[C@H]4O[C@H](CO)[C@@H](O)[C@H](O)[C@H]4O)[C@H](O)[C@H]3O)[C@H](O)[C@H]2O)[C@H](O)[C@H]1O)[C@H](O)CO [MPCA, maltopentaose cetyl amide]

introduction ratio in comparison with DOMG (in words) [3]: low in comparison with that of DOMG
introduction ratio ([3]; vesicle concentration 0.2 wt %): 70.9%
introduction ratio ([3]; vesicle concentration 1.0 wt %): 83.2%
turbidity increase rate relative to unmodified DPPC vesicle dispersion (100%) ([4]; 5 mol % modifier, 24 hours): 12.1%
Compound: Dioctadecylmaltopentaosyl glycerol [DOMPG]

average diameter [2, 10]: 38±8 nm
turbidity increase rate relative to unmodified DPPC vesicle dispersion (100%) [5, 11]: 65.4%
Compound: Maltopentaose dipalmitate [MPDP, reference compound]

average particle diameter [2, 8]: 34±12 nm
average diameter [2, 10]: 34±12 nm
introduction ratio in comparison with DOMG (in words) [3]: low in comparison with that of DOMG
introduction ratio ([3]; vesicle concentration 0.2 wt %): 48.5%
introduction ratio ([3]; vesicle concentration 1.0 wt %): 75.8%
turbidity increase rate relative to unmodified DPPC vesicle dispersion (100%) ([4]; 5 mol % modifier, 24 hours): 13.5%
turbidity increase rate relative to unmodified DPPC vesicle dispersion (100%) [5, 11]: 12.7%
turbidity increase rate relative to unmodified DPPC vesicle dispersion (100%) [5, 9]: 11.2%
Compound: Maltopentaose monopalmitate [MPMP, reference compound]

More lines, now with the values behind:

Compound: CCCCCCCC/C=C\CCCCCCCCNC(=O)[C@H](NC(C)=O)[C@@H](O)[C@H](O[C@@H]1O[C@H](CO)[C@@H](O)[C@H](O)[C@H]1NC(C)=O)[C@H](O)CO [DACOA, di-N-acetylchitobiose oleylamine]
viscosity change on addition of calcium ion (in words) [1]: not changed
viscosity of the dispersion with calcium ion ([1]; Vismetron VS-AK): 5 cp
average particle diameter [2, 7]: 200 nm

Compound: CCCCCCCCCCCCCCCCCCOCC(COC1O[C@H](CO)[C@@H](O[C@H]2O[C@H](CO)[C@@H](O)[C@H](O)[C@H]2O)[C@H](O)[C@H]1O)OCCCCCCCCCCCCCCCCCC (stereo partly drawn) [DOMG, 1,2-di-octadecyl-O-α(β)-maltosyl-glycerol]
particle diameter ([2]; DPPC vesicle, about 5 mol % modifier, extruder 0.05 μm (Example 11)): 35±15 nm
introduction ratio ([3]; vesicle concentration 0.2 wt %): 77.0%
introduction ratio ([3]; vesicle concentration 1.0 wt %): 94.3%
increase of the turbidity depending on amount of modifier (order) ([4]; 5-20 mol %): 5 mol %>10 mol %>15 mol %>20
vesicle stabilization effect (in words) ([4]; 5 mol % modifier, 24 hours): not so effective
turbidity increase rate relative to unmodified DPPC vesicle dispersion (100%) ([4]; 5 mol % modifier, 24 hours): 45.5%
turbidity increase rate relative to unmodified DPPC vesicle dispersion (100%) ([4]; 10 mol % modifier, 24 hours): 28.9%
turbidity increase rate relative to unmodified DPPC vesicle dispersion (100%) ([4]; 15 mol % modifier, 24 hours): 16.0%
turbidity increase rate relative to unmodified DPPC vesicle dispersion (100%) ([4]; 20 mol % modifier, 24 hours): 11.2%

Compound: CC(C)CCC[C@@H](C)[C@H]1CC[C@H]2[C@@H]3CC=C4C[C@@H](OCCOCCOCCOCCOC5O[C@H](CO)[C@@H](O[C@@H]6O[C@H](CO)[C@@H](O)[C@H](O)[C@H]6O)[C@H](O)[C@H]5O)CC[C@]4(C)[C@H]3CC[C@]12C (stereo partly shown) [STEC, cellobiosyl tetraethyleneglycosyl cholesterol]
turbidity increase on dextran addition relative to unmodified vesicles [6]: 58%

Compound: dioctadecyl lactosyl glycerol [DOLG]
viscosity change on addition of calcium ion (in words) [1]: without viscosity increase
viscosity of the dispersion with calcium ion ([1]; 37 °C, shear rate 1.15 sec^-1): 5 cp
